Earlier results as cited in paper PMC5911155 (Nature chemistry, 2018).

Test system: Aβ42 monomers
Conditions: ref [7], [42]

Aβ40: fibrils constructed from other proteins and peptides, including Aβ40
ability of fibrils to catalyse nucleation of Aβ42 monomers: not able to efficiently catalyse nucleation of Aβ42 monomers
